In US20230149418A1, “METHODS AND SYNERGIC COMPOSITIONS FOR TREATING VIRAL INFECTIONS” (HADASIT MEDICAL RESEARCH SERVICES AND DEVELOPMENT LTD., priority 2018, published 2023):
Several values for one entry are separate records, joined by “and”; a condition that tells them apart may be missing. Equal entries are not always repeated. Where two headings read alike, the source gives them in different places.

How the values were obtained:
[1] = male rats, 50 mg/kg for 14 days; cited from earlier work
HCMV TB40/E strain = test: Plaque reduction assay, HCMV TB40/E strain in human foreskin fibroblasts, single drugs and 2-drug combinations (Chou-Talalay); format: cell-based, human cytomegalovirus; details: for Dose of drug alone at Fa 0.9: Fa 0.9, drug alone; for EC50: Human betaherpesvirus 5, Fibroblast
Experimental: The CMV strain used was TB40/E. The CMV strain was propagated and tittered in human foreskin fibroblasts (HFF) cells. Cell-free virus stocks and cell-associated clinical isolates were maintained at -70° C. Viral stocks were tittered by serial 10-fold dilution in 24-well tissue culture plates containing HFF monolayers overlaid with agarose-medium. After incubation for 7 to 14 days, plaques were enumerated, and virus titer was determined as plaque forming units (PFU) per milliliter (ml). Stocks of artemisone (10 mM), ganciclovir (10 mM), BDCRB (120 mM), brincidofovir (1 mM), maribavir (10 mM) and letermovir (10 mM) were prepared in DMSO or H2O.
Cell monolayers were inoculated in 24-well culture plates with 0.2 ml of virus suspension containing 60 to 100 PFU per well. After adsorption for 60 -120 min at 37° C., the inoculum was removed, and culture medium was replaced with agarose-medium overlay containing serial concentrations of the tested drug(s). Plates were incubated for 7-14 days at 37° C. in a 5% CO2 incubator. Plaques were then counted microscopically.
The effect of a combination of artemisone with each one of ganciclovir (HCMV DNA polymerase), BDCRB (HCMV terminase inhibitor), brincidofovir (HCMV DNA polymerase inhibitor), maribavir (HCMV UL97 kinase inhibitor) and letermovir (HCMV terminase inhibitor) was evaluated by the classical plaque reduction assay. The in vitro activity of each of the above mentioned antiviral compounds alone or in combination with artemisone was evaluated by the classical plaque reduction assay, using HCMV TB40/E strain in human foreskin fibroblasts cells. The concentration of each antiviral compound that reduced the plaque formation by 50% (EC50) was determined as previously described in Wolf DG et al., J Clin Invest. 1995;95:257-63. The individual EC50 values in human foreskin fibroblasts were as follows: artemisone EC50 - 1 µM; ganciclovir EC50 - 1 µM; maribavir EC50 - 1 µM; BDCRB EC50 - 0.5 µM; letermovir EC50 - 5 nM; brincidofovir EC50 -1 nM.
For the 2-drug combination studies, the EC50 value of each drug was used to determine an equipotent ratio between the two compounds (EC50 of drug 1 / EC50 of drug 2). Serial 2-fold dilutions of a mixture comprising artemisone and another antiviral compound at initial concentrations equivalent to 4-fold the equipotent ratio were added to duplicate wells of cells infected with HCMV. Overall, 5 different concentrations of the drug combinations were used: 4xEC50, 2xEC50, 1xEC50,0.5xEC50,0.25xEC50. The cell monolayers were inoculated in 24-well culture plates with 0.2 ml of virus suspension containing 60 to 100 plaque-forming unit (PFU) per well; the Multiplicity of infection (MOI) was 0.001-0.002 PFU/cell).
D1 and D2 are the doses of the two drugs, and Dx is a dose causing to x% effect (LD0.5 is EC50). Briefly, the software extrapolated a combination index (CI) representing the interaction between the two drugs at specified levels of virus inhibition (that is 50%, 75%, 90%, 95%) versus the percentages of the inhibition induced by each drug alone and in combination (equation 16 in Chou).
A weighted average CI (CIwt) was then calculated for each combination as (CI50+ 2×CI75+3×CI90+4×CI95)/10, to access the drug combinatory effects.
The dose reduction index (DRI) was then calculated as described in Chou. In general, the DRI measures the fold of dose reduction of each drug in the combination at a given effect level compared with the doses of each drug alone. For each one of the below tables: Fa - fraction of virus affected; doses are provided in µm.

CC1CCC2[C@@H](C)[C@H](N3CCS(=O)(=O)CC3)OC3O[C@]4(C)CCC1C32OO4 (stereo in doubt) [artemisone]
Tolerability [1]: no effect as compared to controls
Dose of drug alone at Fa 0.75 (HCMV TB40/E strain; Fa 0.75, drug alone, listed as Art): 2.189 µm and 2.23 µm and 3.071 µm
Dose of drug alone at Fa 0.9 (HCMV TB40/E strain): 7.66 µm
Dose of drug alone at Fa 0.9 (HCMV TB40/E strain; listed as Art): 7.658 µm and 7.87 µm and 8.905 µm
Dose of drug alone at Fa 0.95 (HCMV TB40/E strain; Fa 0.95, drug alone, listed as Art): 17.9447 µm and 18.59 µm and 18.3723 µm
Dose of drug alone at Fa 0.97 (HCMV TB40/E strain; Fa 0.97, drug alone, listed as Art): 32.8918 µm and 34.26 µm and 30.7567 µm
EC50 (HCMV TB40/E strain; Fa 0.5, drug alone, read-out: Dose of drug alone at Fa 0.5): 626 nM
EC50 (HCMV TB40/E strain; drug alone, human foreskin fibroblasts, read-out: EC50 (concentration that reduced the plaque formation by 50%)): 1000 nM
DRI (dose reduction index) (HCMV TB40/E strain; combination artemisone + brincidofovir, Fa 0.05): 0.16
DRI (dose reduction index) (HCMV TB40/E strain; combination artemisone + brincidofovir, Fa 0.5): 1.44
DRI (dose reduction index) (HCMV TB40/E strain; combination artemisone + brincidofovir, Fa 0.75): 3.24
DRI (dose reduction index) (HCMV TB40/E strain; combination artemisone + brincidofovir, Fa 0.9): up to 7
DRI (dose reduction index) (HCMV TB40/E strain; combination artemisone + brincidofovir, Fa 0.9, listed as Art): 7.28
DRI (dose reduction index) (HCMV TB40/E strain; combination artemisone + brincidofovir, Fa 0.95): 12.65
DRI (dose reduction index) (HCMV TB40/E strain; combination artemisone + brincidofovir, Fa 0.97): 18.74
DRI (dose reduction index) (HCMV TB40/E strain; combination artemisone + cidofovir, Fa 0.05): 0.3256
DRI (dose reduction index) (HCMV TB40/E strain; combination artemisone + cidofovir, Fa 0.5): 2.047
DRI (dose reduction index) (HCMV TB40/E strain; combination artemisone + cidofovir, Fa 0.75): 4.066
DRI (dose reduction index) (HCMV TB40/E strain; combination artemisone + cidofovir, Fa 0.9): 8.07
DRI (dose reduction index) (HCMV TB40/E strain; combination artemisone + cidofovir, Fa 0.9, listed as Art): 8.075
DRI (dose reduction index) (HCMV TB40/E strain; combination artemisone + cidofovir, Fa 0.95): 12.8761
DRI (dose reduction index) (HCMV TB40/E strain; combination artemisone + cidofovir, Fa 0.97): up to 17.9
DRI (dose reduction index) (HCMV TB40/E strain; combination artemisone + cidofovir, Fa 0.97, listed as Art): 17.9464
DRI (dose reduction index) (HCMV TB40/E strain; combination artemisone + ganciclovir, Fa 0.05): 0.2822
DRI (dose reduction index) (HCMV TB40/E strain; combination artemisone + ganciclovir, Fa 0.5): 1.792
DRI (dose reduction index) (HCMV TB40/E strain; combination artemisone + ganciclovir, Fa 0.75): 3.573
DRI (dose reduction index) (HCMV TB40/E strain; combination artemisone + ganciclovir, Fa 0.9, listed as Art): 7.123
DRI (dose reduction index) (HCMV TB40/E strain; combination artemisone + ganciclovir, Fa 0.95): 11.39
DRI (dose reduction index) (HCMV TB40/E strain; combination artemisone + ganciclovir, Fa 0.95, listed as Art): 11.3872
DRI (dose reduction index) (HCMV TB40/E strain; combination artemisone + ganciclovir, Fa 0.97): 15.9002
DRI (dose reduction index) (HCMV TB40/E strain; combination artemisone + letermovir, Fa 0.05): 0.2276
DRI (dose reduction index) (HCMV TB40/E strain; combination artemisone + letermovir, Fa 0.5): 1.624
DRI (dose reduction index) (HCMV TB40/E strain; combination artemisone + letermovir, Fa 0.75): 3.38
DRI (dose reduction index) (HCMV TB40/E strain; combination artemisone + letermovir, Fa 0.9): 7.04
DRI (dose reduction index) (HCMV TB40/E strain; combination artemisone + letermovir, Fa 0.9, listed as Art): 7.037
DRI (dose reduction index) (HCMV TB40/E strain; combination artemisone + letermovir, Fa 0.95): 11.5866
DRI (dose reduction index) (HCMV TB40/E strain; combination artemisone + letermovir, Fa 0.97): up to 16
DRI (dose reduction index) (HCMV TB40/E strain; combination artemisone + letermovir, Fa 0.97, listed as Art): 16.5217
DRI (dose reduction index) (HCMV TB40/E strain; combination artemisone + maribavir, Fa 0.05): 7.032
DRI (dose reduction index) (HCMV TB40/E strain; combination artemisone + maribavir, Fa 0.5): 15.7458
DRI (dose reduction index) (HCMV TB40/E strain; combination artemisone + maribavir, Fa 0.75): 21.2706
DRI (dose reduction index) (HCMV TB40/E strain; combination artemisone + maribavir, Fa 0.9): 28.7
DRI (dose reduction index) (HCMV TB40/E strain; combination artemisone + maribavir, Fa 0.9, listed as Art): 28.7339
DRI (dose reduction index) (HCMV TB40/E strain; combination artemisone + maribavir, Fa 0.95): 35.2558
DRI (dose reduction index) (HCMV TB40/E strain; combination artemisone + maribavir, Fa 0.97): 40.8
DRI (dose reduction index) (HCMV TB40/E strain; combination artemisone + maribavir, Fa 0.97, listed as Art): 40.7793
